Active and inactive are the calls of the source.
Legend:
Fibrinogen beta chain [1] = target: T1, Fibrinogen beta chain (Homo sapiens, UniProt P02675); test: Fluorescence polarization-based biochemical high throughput dose response assay to identify inhibitors that disrupt the binding of a cyclic peptide (Tn7) to the fibrin proteolytic product D-Dimer and fragment E complex [DD(E )].
[2] = target: T2, Polyadenylate-binding protein 1 (Homo sapiens, UniProt P11940); test: PABP1 MLLE–PAM2 binding inhibitor potency, dose response, biochemical, fluorescence polarization, FITC-PAM2 peptide (AID 602259); assay type: functional; conditions: read-out: IC50_Mean
T2 sequence (P11940 whole entry): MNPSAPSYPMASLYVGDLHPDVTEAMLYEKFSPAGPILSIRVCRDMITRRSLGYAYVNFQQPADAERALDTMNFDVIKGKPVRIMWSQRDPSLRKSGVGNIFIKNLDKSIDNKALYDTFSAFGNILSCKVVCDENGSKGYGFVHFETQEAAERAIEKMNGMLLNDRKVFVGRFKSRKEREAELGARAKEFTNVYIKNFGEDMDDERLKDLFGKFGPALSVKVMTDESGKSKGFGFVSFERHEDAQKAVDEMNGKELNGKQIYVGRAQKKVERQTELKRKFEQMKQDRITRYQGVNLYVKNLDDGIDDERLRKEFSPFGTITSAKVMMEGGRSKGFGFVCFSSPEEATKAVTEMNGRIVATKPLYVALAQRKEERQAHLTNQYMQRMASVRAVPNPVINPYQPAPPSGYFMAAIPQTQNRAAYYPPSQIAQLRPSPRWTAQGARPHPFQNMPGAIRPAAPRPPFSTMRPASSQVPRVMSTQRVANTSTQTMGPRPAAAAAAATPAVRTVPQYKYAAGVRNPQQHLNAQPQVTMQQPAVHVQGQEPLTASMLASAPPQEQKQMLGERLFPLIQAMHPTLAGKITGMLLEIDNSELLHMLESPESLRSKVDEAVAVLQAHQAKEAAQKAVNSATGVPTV

[3] = target: Peroxisome proliferator-activated receptor gamma/Nuclear receptor coactivator 1 (Homo sapiens, UniProt P37231); test: TR-FRET dose response biochemical High Throughput Screening assay for agonists of the steroid receptor coactivator 1 (SRC-1) recruitment by the peroxisome proliferator-activated receptor gamma (PPAR gamma): non-selective agonists. [Related pubchem assays (depositor defined):AID1300, AID1808, AID504735, AID631]; assay type: protein assay
Peroxisome proliferator-activated receptor gamma/Nuclear receptor coactivator 1, sequence (P37231 whole entry): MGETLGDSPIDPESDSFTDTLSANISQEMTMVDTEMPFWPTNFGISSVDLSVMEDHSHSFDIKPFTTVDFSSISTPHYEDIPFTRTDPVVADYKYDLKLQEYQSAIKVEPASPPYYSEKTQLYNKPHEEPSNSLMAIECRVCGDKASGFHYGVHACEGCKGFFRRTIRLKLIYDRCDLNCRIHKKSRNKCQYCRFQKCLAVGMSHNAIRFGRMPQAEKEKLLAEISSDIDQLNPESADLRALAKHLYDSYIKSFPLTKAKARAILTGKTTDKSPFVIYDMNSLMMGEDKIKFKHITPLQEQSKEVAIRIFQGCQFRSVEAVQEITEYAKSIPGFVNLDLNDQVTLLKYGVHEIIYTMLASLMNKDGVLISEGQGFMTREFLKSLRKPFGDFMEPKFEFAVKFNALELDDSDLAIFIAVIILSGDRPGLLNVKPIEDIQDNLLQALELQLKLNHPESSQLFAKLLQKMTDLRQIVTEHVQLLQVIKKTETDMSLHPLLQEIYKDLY
Peroxisome proliferator-activated receptor gamma/Nuclear receptor coactivator 1, sequence (Q15788 whole entry, further chain): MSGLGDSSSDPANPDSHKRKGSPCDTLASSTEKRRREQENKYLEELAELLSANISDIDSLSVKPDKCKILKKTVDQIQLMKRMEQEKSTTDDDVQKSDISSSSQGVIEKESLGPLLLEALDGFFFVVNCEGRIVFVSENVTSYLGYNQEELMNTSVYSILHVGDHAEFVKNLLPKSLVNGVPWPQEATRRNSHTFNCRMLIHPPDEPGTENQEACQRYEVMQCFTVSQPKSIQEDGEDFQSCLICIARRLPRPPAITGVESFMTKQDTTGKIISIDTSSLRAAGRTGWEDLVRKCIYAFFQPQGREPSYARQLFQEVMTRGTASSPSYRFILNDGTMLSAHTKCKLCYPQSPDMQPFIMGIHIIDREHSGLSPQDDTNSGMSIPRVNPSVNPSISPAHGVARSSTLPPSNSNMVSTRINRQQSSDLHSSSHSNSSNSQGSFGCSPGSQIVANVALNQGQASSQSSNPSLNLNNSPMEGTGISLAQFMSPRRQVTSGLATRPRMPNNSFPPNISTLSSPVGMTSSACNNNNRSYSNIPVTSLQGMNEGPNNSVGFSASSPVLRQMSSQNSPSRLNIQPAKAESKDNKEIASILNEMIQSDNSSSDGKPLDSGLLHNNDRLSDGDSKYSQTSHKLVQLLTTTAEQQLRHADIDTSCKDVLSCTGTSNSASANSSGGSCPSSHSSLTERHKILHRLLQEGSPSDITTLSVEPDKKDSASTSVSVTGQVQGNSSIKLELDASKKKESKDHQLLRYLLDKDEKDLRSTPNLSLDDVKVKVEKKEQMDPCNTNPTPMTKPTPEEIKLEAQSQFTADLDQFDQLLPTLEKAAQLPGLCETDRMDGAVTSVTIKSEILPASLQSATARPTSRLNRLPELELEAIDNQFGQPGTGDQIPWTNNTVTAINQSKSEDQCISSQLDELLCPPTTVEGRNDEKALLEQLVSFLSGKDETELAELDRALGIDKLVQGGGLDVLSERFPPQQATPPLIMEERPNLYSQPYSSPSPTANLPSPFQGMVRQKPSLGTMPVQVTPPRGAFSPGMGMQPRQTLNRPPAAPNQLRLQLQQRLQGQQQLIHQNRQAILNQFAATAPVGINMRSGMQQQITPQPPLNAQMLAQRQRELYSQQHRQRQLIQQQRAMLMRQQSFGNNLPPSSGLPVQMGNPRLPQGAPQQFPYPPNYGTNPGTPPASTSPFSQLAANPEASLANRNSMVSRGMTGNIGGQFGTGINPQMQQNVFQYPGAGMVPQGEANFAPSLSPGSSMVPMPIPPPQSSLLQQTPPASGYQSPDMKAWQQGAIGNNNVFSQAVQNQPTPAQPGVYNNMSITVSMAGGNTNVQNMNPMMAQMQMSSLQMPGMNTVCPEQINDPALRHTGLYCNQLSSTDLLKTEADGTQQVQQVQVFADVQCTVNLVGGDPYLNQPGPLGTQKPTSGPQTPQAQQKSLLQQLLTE

[4] = target: T2, Polyadenylate-binding protein 1; test: PABP1 MLLE–PAM2 interaction inhibitors, dose response, miRNA deadenylation inhibitor project, biochemical, fluorescence polarization, Cy5-PAM2 peptide, secondary (AID 602260); assay type: functional; conditions: read-out: IC50_Mean
[5] = target: Peroxisome proliferator-activated receptor gamma/Nuclear receptor coactivator 2 (Homo sapiens, UniProt P37231); test: (§1) TR-FRET dose response biochemical High Throughput Screening assay for agonists of the steroid receptor coactivator 2 (SRC-2) recruitment by the peroxisome proliferator-activated receptor gamma (PPAR gamma): non-selective agonists. [Related pubchem assays: 1297, 1032 ]; assay type: functional
Fibrinogen beta chain [6] = target: T1, Fibrinogen beta chain; test: Fluorescence polarization-based biochemical high throughput dose response assay to identify inhibitors that disrupt the binding of a cyclic peptide (Tn6) to the fibrin proteolytic product D-Dimer and fragment E complex [DD(E )].
[7] = target: Peroxisome proliferator-activated receptor gamma/Nuclear receptor coactivator 3 (Homo sapiens, UniProt P37231); test: as §1, with “3 (SRC-3)” for “2 (SRC-2)”, “1301 (Confirmation screen.), 1048 (Primary screen.)]” for “1297, 1032 ]”; assay type: functional
[8] = target: Bifunctional protein GlmU (Mycobacterium tuberculosis, UniProt P9WMN3); test: Inhibitors of Mycobacterial Glucosamine-1-phosphate acetyl transferase (GlmU). Secondary screen.; design: species or system Mycobacterium tuberculosis H37Rv
[9] = target: T3, Alkaline phosphatase, tissue-nonspecific isozyme (Homo sapiens, UniProt P05186); test: human TNAP enzyme inhibitors, SAR follow-up, biochemical, luminescent, dose response (AID 1056)
T3 sequence (P05186 whole entry): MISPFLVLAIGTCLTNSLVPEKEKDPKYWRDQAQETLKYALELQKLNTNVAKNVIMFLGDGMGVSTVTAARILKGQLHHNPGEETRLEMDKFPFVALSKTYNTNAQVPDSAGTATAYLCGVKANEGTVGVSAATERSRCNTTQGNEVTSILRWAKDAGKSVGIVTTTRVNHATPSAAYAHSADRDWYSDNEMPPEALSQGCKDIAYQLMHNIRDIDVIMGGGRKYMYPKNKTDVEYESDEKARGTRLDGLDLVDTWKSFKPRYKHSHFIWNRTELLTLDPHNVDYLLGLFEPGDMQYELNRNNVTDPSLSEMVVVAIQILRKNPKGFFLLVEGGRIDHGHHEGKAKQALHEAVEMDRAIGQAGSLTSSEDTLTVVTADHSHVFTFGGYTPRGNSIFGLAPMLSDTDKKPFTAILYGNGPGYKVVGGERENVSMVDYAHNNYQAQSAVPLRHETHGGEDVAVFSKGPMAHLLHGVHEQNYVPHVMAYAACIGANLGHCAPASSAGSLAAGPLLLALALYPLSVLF

[10] = inhibitors of SNCA 5'UTR-driven reporter translation, confirmation, H4 neuroglioma cells, luminescence (AID 1988); assay type: functional, cell-based
[11] = Luminescence Cell-Based Dose Confirmation HTS to Identify Inhibitors of Platelet Dense Granule Release. [Related pubchem assays: 1663 (Primary HTS), 1678 (Summary of Project)]; assay type: functional
[12] = target: Luciferin 4-monooxygenase (Photinus pyralis, UniProt P08659); test: firefly luciferase enzyme inhibitors, dose response, biochemical, luminescence (AID 1891)
[13] = Luminescence Cell-Based Dose Response HTS to Identify Inhibitors of 5'UTR Stem-Loop Driven Prion Protein mRNA Translation in H4 Neuroglioblastoma Cells. [Related pubchem assays: 1827 (Project Summary), 1813 (Primary HTS)]; assay type: functional
[14] = target: Alkaline phosphatase, placental type (Homo sapiens, UniProt P05187); test: PLAP enzyme inhibitors, confirmation, biochemical, luminescence (AID 1512); assay type: functional
Alkaline phosphatase, placental type, sequence (P05187 whole entry, the tested form may be a part): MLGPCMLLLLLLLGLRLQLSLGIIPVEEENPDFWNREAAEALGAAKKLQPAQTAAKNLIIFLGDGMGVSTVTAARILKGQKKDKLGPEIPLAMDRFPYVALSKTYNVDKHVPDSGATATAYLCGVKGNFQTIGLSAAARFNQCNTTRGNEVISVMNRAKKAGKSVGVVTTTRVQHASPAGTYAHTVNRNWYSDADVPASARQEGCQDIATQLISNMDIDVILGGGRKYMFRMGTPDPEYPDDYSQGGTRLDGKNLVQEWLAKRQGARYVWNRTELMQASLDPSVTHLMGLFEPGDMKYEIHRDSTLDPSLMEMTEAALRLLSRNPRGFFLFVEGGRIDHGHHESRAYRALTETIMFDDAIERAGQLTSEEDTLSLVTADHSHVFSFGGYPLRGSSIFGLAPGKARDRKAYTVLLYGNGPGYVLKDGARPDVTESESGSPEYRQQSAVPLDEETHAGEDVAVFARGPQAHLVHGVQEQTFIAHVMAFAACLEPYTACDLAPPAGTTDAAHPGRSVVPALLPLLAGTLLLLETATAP

[15] = target: Oxysterols receptor LXR-beta (Homo sapiens, UniProt P55055); assay type: functional, cell-based;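 further: Cell-based luminescence dose-response assay of agonist activity at LXR, run as a confirmatory counterscreen to a daf-12 agonist screen; HEK293 cells with Gal4-LXR fusion and GAL4-driven luciferase reporter; agonist potency from rising luciferase signal of a Gal4-LXR reporter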
Oxysterols receptor LXR-beta, sequence (P55055 whole entry, the tested form may be a part): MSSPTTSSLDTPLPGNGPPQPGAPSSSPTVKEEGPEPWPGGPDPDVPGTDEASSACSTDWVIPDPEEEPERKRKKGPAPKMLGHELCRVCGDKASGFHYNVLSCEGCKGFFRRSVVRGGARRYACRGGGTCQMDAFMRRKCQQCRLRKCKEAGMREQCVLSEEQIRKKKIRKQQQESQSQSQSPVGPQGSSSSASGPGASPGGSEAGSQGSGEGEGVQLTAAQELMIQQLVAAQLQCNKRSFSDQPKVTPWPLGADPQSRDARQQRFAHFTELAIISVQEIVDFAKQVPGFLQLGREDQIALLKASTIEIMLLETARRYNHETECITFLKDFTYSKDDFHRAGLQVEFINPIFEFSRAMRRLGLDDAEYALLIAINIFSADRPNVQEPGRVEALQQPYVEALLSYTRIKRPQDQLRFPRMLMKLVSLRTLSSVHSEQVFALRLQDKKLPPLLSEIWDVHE

[16] = inhibitors of firefly luciferase expression or activity, dose response, H4 neuroglioma cells, luminescence (AID 1990); assay type: functional, cell-based
[17] = inhibitors of intracellular T. cruzi replication, confirmation, NIH3T3 host cells, beta-gal luminescence (AID 2044); assay type: functional, cell-based;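 further: intracellular parasites grown in NIH/3T3 mouse fibroblasts as host cells; luminescent beta-galactosidase reporter signal from transgenic T. cruzi replicating inside host cells; inhibitors lower the luminescence signal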
[18] = target: Eukaryotic translation initiation factor 4E (Mus musculus, UniProt P63073); test: eIF4E–eIF4G protein interaction inhibitors, dose response, biochemical, TR-FRET (AID 855); assay type: functional;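 further: potency for disrupting eIF4E binding to eIF4GI seen as loss of FRET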
Eukaryotic translation initiation factor 4E, sequence (P63073 whole entry): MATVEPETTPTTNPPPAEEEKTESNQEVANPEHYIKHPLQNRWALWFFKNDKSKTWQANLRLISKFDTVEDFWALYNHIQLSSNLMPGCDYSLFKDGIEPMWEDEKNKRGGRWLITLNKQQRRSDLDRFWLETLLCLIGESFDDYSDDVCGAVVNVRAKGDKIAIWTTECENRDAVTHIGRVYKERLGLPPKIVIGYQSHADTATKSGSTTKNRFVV

[19] = target: Glutathione-S-transferase (Schistosoma japonicum, UniProt Q26513); test: biotin-GST/anti-GST TR-FRET signal inhibitors, dose response, artefact control for Vif-APOBEC3G degradation inhibitor project, biochemical (AID 1117362); assay type: functional
Glutathione-S-transferase, sequence (Q26513 whole entry): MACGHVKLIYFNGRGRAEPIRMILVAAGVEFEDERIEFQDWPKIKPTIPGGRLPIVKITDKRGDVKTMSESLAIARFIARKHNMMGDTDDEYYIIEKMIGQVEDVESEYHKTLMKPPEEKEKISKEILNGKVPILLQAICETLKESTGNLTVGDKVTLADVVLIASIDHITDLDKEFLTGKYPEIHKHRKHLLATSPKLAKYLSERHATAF

BJ [20] = test: cytotoxicity toward BJ-TERT fibroblasts, dose response, cell-based, RAS-independent, luminescence (AID 1933); assay type: functional; conditions: Homo sapiens
[21] = HEK293 cell cytotoxicity, dose response, cytotoxicity control, dry powder samples (AID 720567); assay type: functional, cell-based
BJ [22] = test: cytotoxicity toward BJ-TERT-LT-ST fibroblasts, dose response, cell-based, RAS-independent, luminescence (AID 1935); assay type: functional; conditions: Homo sapiens;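 further: BJ fibroblasts immortalized with TERT plus LT and ST oncogenes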
BJ [23] = test: cells; assay type: functional, cell-based; conditions: Homo sapiens
[24] = cytotoxicity toward DRD oncogenic fibroblasts, dose response, cell-based, non-viral oncogenic, luminescence (AID 1934); assay type: functional; conditions: Homo sapiens
[25] = half-maximal inhibitory concentration for glucagon-like peptide-1 release, STC-1 cell line, dose-response (AID 1117345); assay type: functional, cell-based
[26] = Glucagon-like peptide 1 release potency, NCI-H716 cell line, dose-response, half-maximal inhibitory concentration (AID 1117344); assay type: functional, cell-based
[27] = target: NAD-dependent protein deacylase sirtuin-5, mitochondrial (Homo sapiens, UniProt Q9NXA8); test: SIRT5 desuccinylase inhibitors, dose response, biochemical, fluorescence imaging, cherry-pick, set 5 (AID 720591);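 further: desuccinylation of succinyl peptide AMC substrate read as fluorescence after trypsin release; potency of inhibitors that lower fluorescence and may act on trypsin instead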
NAD-dependent protein deacylase sirtuin-5, mitochondrial, sequence (Q9NXA8 whole entry): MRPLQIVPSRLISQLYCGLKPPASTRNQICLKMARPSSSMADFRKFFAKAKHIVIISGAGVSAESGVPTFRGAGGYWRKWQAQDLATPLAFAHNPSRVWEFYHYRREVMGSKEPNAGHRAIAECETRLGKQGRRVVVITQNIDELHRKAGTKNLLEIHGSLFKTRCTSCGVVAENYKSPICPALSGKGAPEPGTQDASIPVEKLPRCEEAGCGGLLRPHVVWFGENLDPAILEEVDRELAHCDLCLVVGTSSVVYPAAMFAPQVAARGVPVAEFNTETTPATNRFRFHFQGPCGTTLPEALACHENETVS

T1 sequence (P02675 whole entry, the tested form may be a part): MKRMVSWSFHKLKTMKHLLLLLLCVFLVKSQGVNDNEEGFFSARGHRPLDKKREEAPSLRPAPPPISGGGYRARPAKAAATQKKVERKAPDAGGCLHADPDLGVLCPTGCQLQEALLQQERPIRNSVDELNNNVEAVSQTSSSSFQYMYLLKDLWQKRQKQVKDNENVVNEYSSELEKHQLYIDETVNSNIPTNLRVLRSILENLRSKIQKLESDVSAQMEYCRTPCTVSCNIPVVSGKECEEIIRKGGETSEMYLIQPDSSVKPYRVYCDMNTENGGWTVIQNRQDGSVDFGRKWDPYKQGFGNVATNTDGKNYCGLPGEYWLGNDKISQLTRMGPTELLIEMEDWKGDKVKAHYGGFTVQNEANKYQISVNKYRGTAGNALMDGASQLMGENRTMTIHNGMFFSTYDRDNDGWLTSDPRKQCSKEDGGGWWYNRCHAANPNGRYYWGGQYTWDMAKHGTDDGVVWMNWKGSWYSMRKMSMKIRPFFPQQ

Cc1cc2cc(CNC(=O)c3ccc(S(=O)(=O)N4CCOCC4)cc3)ccc2n1C
IC50 (Fibrinogen beta chain [1]): > 83.3 µM (inactive)
IC50 [2]: 49.6 µM (inactive)
EC50 [3]: 6.78 µM (active)
IC50 [4]: > 66 µM (inactive)
EC50 [5]: 6.71 µM (active)
IC50 (Fibrinogen beta chain [6]): 10.6 µM (inactive)
EC50 [7]: 15.7 µM (not active)

O=S1(=O)c2ccccc2N=NN1Cc1ccc(Cl)c(Cl)c1
IC50 [8]: 38.7 µM (active)

Clc1ccc(/C=C/c2nc3ccccc3[nH]2)c(Cl)c1
IC50 [9]: 5.78 µM (active)
EC50 [10]: 2.85 µM (inconclusive)
EC50 [11]: 8.31 µM (active)
EC50 [12]: 0.519 µM (active)
EC50 (cells): > 67.5 µM (inactive)
EC50 [13]: 7.08 µM (active)
IC50 [14]: 2.85 µM (active)
EC50 [15]: > 67.5 µM (inactive)
EC50 [16]: 0.55 µM (active)
EC50 [17]: 3.15 µM (active)

CN(C)[C@@H]1C(=O)C(C(=O)NCN2CCCC2)=C(O)[C@@]2(O)C(O)=C3C(=O)c4c(O)cccc4[C@@](C)(O)C3CC12 (some centres not stated)
IC50 [18]: 12.3 µM (active)
IC50 [19]: > 100 µM (active)

CCC1=Nc2cc(C(=O)NCCCOC)ccc2Sc2ccccc21
EC50 [10]: 0.127 µM (active)
EC50 (BJ [20]): 1.07 µM (active)
AC50 [21]: 9.95 µM (active)
EC50 (BJ [22]): 0.754 µM (inconclusive)
EC50 [13]: 16.1 µM (active)
EC50 [16]: 8.66 µM (inconclusive)
EC50 (BJ [23]): 13.2 µM (active)
EC50 [24]: 0.944 µM (active)
EC50 [17]: 5.01 µM (active)

c1ccc2ccccc2c1
IC50 [25]: > 40 µM (inactive)
IC50 [26]: 20.8 µM (inactive)

Cc1ccc(S(=O)(=O)N2[C@@H](c3ccccc3)C(C(=O)O)=CC[C@H]2c2ccc(Cl)cc2)cc1
AC50 [27]: > 30 µM (inactive)

From ChEMBL document CHEMBL1201862, “PubChem BioAssay data set” (2004)
